“Also recorded” adds a separate entry of the source. Where two headings read alike, the source gives them in different places. Values belong to the compound of their own block, whether it stands above or below them.
Assays:
[1] = tested on: Vero; assay: Cytotoxicity assay, Vero cell line
Description: (§1) We next examined the cytotoxicity profile of the pronucleotide derivatives in different cell lines such as MDBK, Vero, and HFF.
(§2) Standard MTF assays were performed in 96-well plates using the Promega CellTiter96 Non-radioactive Cell Proliferation Assay Kit in conjunction with a 96-well Plate Reader (ThermoMax, Molecular devices), and using MDBK, Vero, and TIFF cell lines (obtained from ATCC). Several controls were employed including the nucleoside analogs 3TC, AZT, and ddC, as well as, media without drugs. SDS was used as a positive cytotoxic control. All pronucleotides were tested in triplicate at concentrations of 100, 300, and 1000 μM. Following a 24-hour incubation of cells with the test substance, the MTF assay was carried out.

[2] = tested on: MDBK; assay: Cytotoxicity assay, MDBK cell line
Description: as §1, §2

[3] = tested on: HFF; assay: Cytotoxicity assay, HFF cell line
Description: as §1, §2

[4] = Bioreversibility (hydrolytic conversion to parent dinucleotide 5) in rabbit serum, HPLC; settings: for time for almost complete conversion to 3′dApsU2′-OMe on serum treatment: rabbit serum, 37° C.; for t1/2 (min) in serum: rabbit
Description: (§3) Evaluation of bioreversibility of the pronucleotides was carried out in rabbit serum in phosphate buffer at 37° C. In order to monitor the hydrolytic conversion of the pronucleotides to the dinucleotide 5, aliquots of incubate were removed at different time points, processed, and analyzed using reversed-phase HPLC.
Bioreversibility studies were carried out as follows: A stock solution of each analog was prepared by dissolving 2 mg in 100 μL of DMSO. 10 μL aliquots were diluted with 90 μL of phosphate buffer (0.1 M, pH 7.0) and 100 μL aliquots of rabbit serum. The mixture was incubated at 37° C. in a water bath. Aliquots were removed at different time points and diluted with 200 μL of methanol to stop the reaction. The incubate was then centrifuged, supernatant concentrated in a speed vac and diluted with 200 μL of 0.1 M ammonium acetate buffer prior to injection into HPLC. Reversed-phase HPLC analysis was carried out using a Waters Instrument equipped with a 600Egradient controller, and a 996 photodiode array detector with Millennium software. X-terra MS C18 2.5 μm, 2.1×20 mm column and an operating gradient of 100% A to 80% B over 30 minutes of buffer A (0.1 M NH4OAc) and buffer B (80:20, CH3CN:NH4OAc) was employed. Retention time for prodrugs ranged from 16 to 18 minutes whereas that of the Rp,Sp dinucleotide 5 was 13.5, 13.8 minutes.

[5] = pH 7.2
Description: as §3

[6] = tested on: pig liver esterase (PLE)
Description: as §3

[7] = target: bovine chymotrypsin (Bos taurus, UniProt P00766)
[8] = tested on: human hepatitis B virus; assay type: in vivo, transgenic mice
[9] = Weight change and apparent toxicity in the HBV transgenic mouse study
Description: Male and female transgenic mice (founder 1.3.32) were infected with human hepatitis B virus. […] The positive control, ADV, was administered at 10 mg/kg/d. Statistical significance is indicated as *P≤0.05, **P≤0.01, ***P≤0.001 compared to placebo vehicle. Measurements of serum HBeAg, PEI are reported according to International Immuno Diagnostics standardized assay using Paul Ehrlich International Units (PEI U).

[10] = assay type: in vitro ADME
Text: However, the challenge in the case of nucleotides and dinucleotides is that they contain highly acid-labile purine and pyrimidine moieties in their structures. Thus, although masking the negative charge of these molecules might aid in their cellular diffusion by increased lipohilicity, it is not known whether they will be stable in gastric mucosa long enough to be absorbed orally. […] Such degradative process is known to occur by initial protonation of nitrogen of the nucleobase followed by depurination and cleavage of the sugar ring.
(§4) The stability of prodrugs in simulated gastric fluid (SGF) and simulated intestine fluid (SIF) at 37° C. were examined. SGF and SIF were prepared following reported procedures and prodrugs were incubated separately with SGF and SIF for 1 h at 37° C., processed, and analyzed using reverse-phase HPLC.

[11] = Stability in simulated intestine fluid (SIF); assay type: in vitro ADME; settings: 1 h at 37° C.
Description: as §4

[12] = Pharmacokinetic study in woodchuck, intravenous; assay type: in vivo
Text: (§5) This is in contrast to traditional antiviral nucleosides, which require metabolic activation and conversion to triphosphate derivatives for their action.

[13] = Metabolism in vitro with human liver microsomes; assay type: in vitro ADME
Text: (§6) This would support the hypothesis that the antiviral activity of 3-dApsU2′-OMe and other di-, and tri-nucleotides is due to the intact nucleotide structure and not due to its metabolites. This is in contrast to traditional antiviral nucleosides, which require metabolic activation and conversion to triphosphate derivatives for their action.
as §5

[14] = Metabolism in vitro with mouse liver microsomes; assay type: in vitro ADME
Text: as §6

[15] = tested on: HBV; settings: Iyer et al., Antimicrob. Agents and Chemotherapy, 48, 2318-2320, 2004; cited from earlier work
[16] = oral once daily for 14 days, 6a 400, 6k 300, ADV 10 mg/kg/d

SMILES: CCCCOCCOC(=O)OCSP(=O)(OCC1OC(n2cnc3c(N)ncnc32)CC1O)OC1C(CO)OC(n2ccc(=O)[nH]c2=O)C1OC (mixture of isomers) [Compound 6u]
Cytotoxicity assay (um) Vero [1]: >1000 um
Cytotoxicity assay (um) MDBK [2]: >300 um
Cytotoxicity assay (um) HFF [3]: >1000 um

SMILES: CO[C@H]1C(OP(=O)(OC[C@H]2O[C@@H](n3cnc4c(N)ncnc43)CC2O)SCOC(=O)C(Cc2ccccc2)NC(=O)OC(C)(C)C)[C@@H](CO)O[C@H]1n1ccc(=O)[nH]c1=O (stereo partly drawn) [Compound 6m, N-(t-butoxycarbonyl)-L-phenylalaninate Analog 6m of 3′dApsU2′OMe]
time for almost complete conversion to 3′dApsU2′-OMe on serum treatment [4]: ~3 h
Cytotoxicity assay (um) Vero ([1]; Table 5, 24-hour incubation): >1000 um
Cytotoxicity assay (um) MDBK ([2]; Table 5, 24-hour incubation): >1000 um
Cytotoxicity assay (um) HFF ([3]; Table 5, 24-hour incubation): >1000 um

time for complete conversion to the parent 5 [4]: ~3 h
time stable in phosphate buffer [5]: up to 24 h
hydrolytic action of pig liver esterase (PLE) [6]: resistant
hydrolytic action of bovine chymotrypsin [7]: resistant
SMILES: COC1C(OP(=O)(OCC2OC(n3cnc4c(N)ncnc43)CC2O)SCc2ccc(OC(=O)C(C)C)cc2)C(CO)OC1n1ccc(=O)[nH]c1=O (mixture of isomers) [Compound 6b]
CC50 [1]: > 1000 µM
CC50 [2]: > 1000 µM
CC50 [3]: > 1000 µM

SMILES: CO[C@H]1C(OP(=O)(OC[C@H]2O[C@@H](n3cnc4c(N)ncnc43)CC2O)SCOC(=O)CCC(C)C2CCC3C4CCC5CC(O)CCC5(C)C4CC(O)C23C)[C@@H](CO)O[C@H]1n1ccc(=O)[nH]c1=O (some centres unmarked) [Compound 6l]
Cytotoxicity assay (um) Vero ([1]; Table 5, 24-hour incubation): >1000 um
Cytotoxicity assay (um) MDBK ([2]; Table 5, 24-hour incubation): >1000 um
Cytotoxicity assay (um) HFF ([3]; Table 5, 24-hour incubation): >1000 um

SMILES: COC1C(OP(=O)(OCC2OC(n3cnc4c(N)ncnc43)CC2O)SCCCCOC(=O)c2cccnc2)C(CO)OC1n1ccc(=O)[nH]c1=O (mixture of isomers) [Compound 6g]
t1/2 (min) in serum [4]: >120^@ min
CC50 [1]: > 1000 µM
CC50 [2]: > 1000 µM
CC50 [3]: > 1000 µM

SMILES: CC(C)(C)C(=O)OCOP(=O)(COCCn1cnc2c(N)ncnc21)OCOC(=O)C(C)(C)C [ADV, adefovir dipivoxil, reference compound]
Liver HBV RNA (log transcripts ± sd) ([8]; mouse, in vivo): 10.5 ± 0.4 log transcripts
QPCR Liver HBV DNA (pg/μg mean ± sd) ([8]; mouse, in vivo): 1.7 ± 1.1 pg/µg
Serum HBeAg, PEI U/mL (mean ± sd) ([8]; mouse, in vivo): 59 ± 9.7 PEI U/mL
Serum HBsAg (signal/cutoff units ± sd) ([8]; mouse, in vivo): 73 ± 52 signal/cutoff units
Southern blot Liver HBV DNA (pg/μg mean ± sd) ([8]; mouse, in vivo): 0.9 ± 1.1 pg/µg

SMILES: COC1C(OP(=O)(OCC2OC(n3cnc4c(N)ncnc43)CC2O)SCCCCOC(=O)c2ccccc2)C(CO)OC1n1ccc(=O)[nH]c1=O (mixture of isomers) [Compound 6f]
t1/2 (min) in serum [4]: >120^@ min
CC50 [1]: > 1000 µM
CC50 [2]: > 1000 µM

SMILES: CO[C@H]1C(OP(=O)(OC[C@H]2O[C@@H](n3cnc4c(N)ncnc43)CC2O)SCOC(=O)OC(C)C)[C@@H](CO)O[C@H]1n1ccc(=O)[nH]c1=O (some centres unmarked) [Compound 6k, S-isopropylcarbonyloxymethyl Thiophosphate Derivative 6k of 3′dApsU2′OMe]
time for almost complete conversion to 3′dApsU2′-OMe on serum treatment [4]: ~3 h
Cytotoxicity assay (um) Vero ([1]; Table 5, 24-hour incubation): >1000 um
Cytotoxicity assay (um) MDBK ([2]; Table 5, 24-hour incubation): >1000 um
Cytotoxicity assay (um) HFF ([3]; Table 5, 24-hour incubation): >1000 um
Liver HBV RNA (log transcripts ± sd) [8, 16]: 10.8 ± 0.4 log transcripts
QPCR Liver HBV DNA (pg/μg mean ± sd) [8, 16]: 13.3 ± 12 pg/µg
Serum HBeAg, PEI U/mL (mean ± sd) [8, 16]: 67 ± 0.6 PEI U/mL
Serum HBsAg (signal/cutoff units ± sd) [8, 16]: 55 ± 59 signal/cutoff units
Southern blot Liver HBV DNA (pg/μg mean ± sd) [8, 16]: 5.7 ± 3.2 pg/µg
apparent toxicity at the high doses employed ([9]; 400 mg/kg/d (6a), 300 mg/kg/d (6k), oral, 14 days): no apparent toxicity
% weight change ± sd [9, 16]: 4.3 ± 1.8%

SMILES: COC1C(OP(=O)([S-])OCC2OC(n3cnc4c(N)ncnc43)CC2O)C(CO)OC1n1ccc(=O)[nH]c1=O.[Na+] (mixture of isomers) [3-dApsU2′-OMe]
time of decomposing in SGF ([10]; SGF, 37° C.): about 15 min
half-life in simulated gastric fluid ([10]; simulated gastric fluid): less than 10 minutes
stability in SIF [11]: relatively stable
elimination in the urine ([12]; IV): mostly intact material
plasma half-life ([12]; intravenous (IV) administration): about 1 h
significant metabolism in vitro [13]: do not occur; also recorded: absence of significant metabolism
significant metabolism in vitro [14]: do not occur
anti-HBV activity in the transgenic mouse model [15]: excellent anti-HBV activity

SMILES: COC1C(OP(=O)(OCC2OC(n3cnc4c(N)ncnc43)CC2O)SCCCCNC(=O)c2ccccc2)C(CO)OC1n1ccc(=O)[nH]c1=O (mixture of isomers) [Compound 6i]
CC50 [1]: > 1000 µM
CC50 [2]: > 1000 µM

SMILES: COC1C(OP(=O)(OCC2OC(n3cnc4c(N)ncnc43)CC2O)SCCCCOC(C)=O)C(CO)OC1n1ccc(=O)[nH]c1=O (mixture of isomers) [Compound 6e]
t1/2 (min) in serum [4]: >60^@ min
CC50 ([1]; read-out: CC50(μM) Vero, Table 4, 24-hour incubation): > 1000 µM
CC50 ([2]; read-out: CC50(μM) MDBK, Table 4, 24-hour incubation): > 1000 µM

SMILES: COC1C(OP(=O)(OCC2OC(n3cnc4c(N)ncnc43)CC2O)SCOC(=O)OC(C)(C)C)C(CO)OC1n1ccc(=O)[nH]c1=O (mixture of isomers) [Compound 6t]
Cytotoxicity assay (um) Vero [1]: >1000 um
Cytotoxicity assay (um) MDBK [2]: >1000 um
Cytotoxicity assay (um) HFF [3]: >1000 um

SMILES: COC1C(OP(=O)(OCC2OC(n3cnc4c(N)ncnc43)CC2O)SCCCCNC(=O)c2cccnc2)C(CO)OC1n1ccc(=O)[nH]c1=O (mixture of isomers) [Compound 6j]
CC50 [1]: > 1000 µM
CC50 [2]: > 1000 µM
CC50 [3]: > 1000 µM

SMILES: COC1C(OP(=O)(OCC2OC(n3cnc4c(N)ncnc43)CC2O)SCOC(=O)OCC(C)C)C(CO)OC1n1ccc(=O)[nH]c1=O (mixture of isomers) [Compound 6s]
Cytotoxicity assay (um) Vero [1]: >1000 um
Cytotoxicity assay (um) MDBK [2]: >1000 um
Cytotoxicity assay (um) HFF [3]: >1000 um

SMILES: COC1C(OP(=O)(OCC2OC(n3cnc4c(N)ncnc43)CC2O)SCc2ccc(NC(C)=O)cc2)C(CO)OC1n1ccc(=O)[nH]c1=O (mixture of isomers) [Compound 6d]
CC50 [1]: > 1000 µM
CC50 [2]: > 1000 µM
CC50 [3]: > 1000 µM

— patent US10344046B2, “Nucleotide and oligonucleotide prodrugs” (priority 2005, dated 2019)
